1 compound from ChEMBL document CHEMBL3352660, “Design, synthesis and pharmacological evaluation of novel polycyclic heteroarene ethers as PDE10A inhibitors: part II” (Bioorg Med Chem Lett, 2014) can be followed below.

One may read the IC50 as the concentration that gives 50% inhibition. One may read the inhibition as the share of the control response that was lost under treatment. By Cmax is commonly meant the highest concentration seen after dosing. Usually clearance stands for the rate of elimination divided by the concentration. As a reminder, the ED50 is the midpoint of the dose-response relation.

Data set [1] has as its target T1, cAMP and cAMP-inhibited cGMP 3',5'-cyclic phosphodiesterase 10A (Rattus norvegicus, UniProt Q9QYJ6).
T1 sequence (Q9QYJ6 whole entry): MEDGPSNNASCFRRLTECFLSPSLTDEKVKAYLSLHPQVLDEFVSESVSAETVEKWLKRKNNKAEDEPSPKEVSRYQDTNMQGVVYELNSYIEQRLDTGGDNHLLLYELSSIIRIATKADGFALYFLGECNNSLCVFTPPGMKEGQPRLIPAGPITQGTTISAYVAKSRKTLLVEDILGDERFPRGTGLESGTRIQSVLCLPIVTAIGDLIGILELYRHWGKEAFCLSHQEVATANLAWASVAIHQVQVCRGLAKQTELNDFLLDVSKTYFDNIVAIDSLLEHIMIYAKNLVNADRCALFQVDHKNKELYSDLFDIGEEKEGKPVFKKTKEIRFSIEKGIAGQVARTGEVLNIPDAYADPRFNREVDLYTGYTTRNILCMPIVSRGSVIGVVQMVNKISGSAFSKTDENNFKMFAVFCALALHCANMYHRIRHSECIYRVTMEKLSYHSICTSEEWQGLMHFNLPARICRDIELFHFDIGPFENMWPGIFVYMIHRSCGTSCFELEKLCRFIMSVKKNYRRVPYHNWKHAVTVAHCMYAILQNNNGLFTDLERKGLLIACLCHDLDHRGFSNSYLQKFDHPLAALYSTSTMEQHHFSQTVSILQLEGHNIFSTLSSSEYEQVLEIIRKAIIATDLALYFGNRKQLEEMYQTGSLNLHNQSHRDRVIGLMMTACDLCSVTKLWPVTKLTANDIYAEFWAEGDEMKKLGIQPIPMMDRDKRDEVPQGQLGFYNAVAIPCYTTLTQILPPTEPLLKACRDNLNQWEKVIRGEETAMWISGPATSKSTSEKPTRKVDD
In words: Inhibition of rat recombinant GST-tagged PDE10A using [3H]-cAMP as substrate by scintillation proximity assay.

In data set [2] the target is T2, cAMP and cAMP-inhibited cGMP 3',5'-cyclic phosphodiesterase 10A (Mus musculus, UniProt Q8CA95).
T2 sequence (Q8CA95 whole entry): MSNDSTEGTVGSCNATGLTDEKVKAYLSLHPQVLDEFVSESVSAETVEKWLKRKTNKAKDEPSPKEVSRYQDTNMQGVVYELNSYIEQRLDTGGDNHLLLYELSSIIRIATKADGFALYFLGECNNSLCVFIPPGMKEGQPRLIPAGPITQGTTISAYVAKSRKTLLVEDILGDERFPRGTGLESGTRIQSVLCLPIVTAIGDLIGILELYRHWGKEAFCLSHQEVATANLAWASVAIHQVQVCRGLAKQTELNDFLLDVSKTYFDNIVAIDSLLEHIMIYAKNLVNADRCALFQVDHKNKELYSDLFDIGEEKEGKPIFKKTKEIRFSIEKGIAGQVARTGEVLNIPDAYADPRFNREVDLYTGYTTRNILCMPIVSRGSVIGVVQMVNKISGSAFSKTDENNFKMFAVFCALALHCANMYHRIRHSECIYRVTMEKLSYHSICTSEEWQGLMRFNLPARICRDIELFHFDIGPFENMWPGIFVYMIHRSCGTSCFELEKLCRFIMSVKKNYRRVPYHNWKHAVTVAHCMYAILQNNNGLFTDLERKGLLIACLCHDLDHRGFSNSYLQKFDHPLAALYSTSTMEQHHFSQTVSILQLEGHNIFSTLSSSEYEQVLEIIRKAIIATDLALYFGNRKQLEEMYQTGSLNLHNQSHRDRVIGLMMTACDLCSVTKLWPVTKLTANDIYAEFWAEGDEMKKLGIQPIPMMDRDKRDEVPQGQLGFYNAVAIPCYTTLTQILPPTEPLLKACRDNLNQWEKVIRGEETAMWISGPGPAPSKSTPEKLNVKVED
The data set can be described thus: Inhibition of mouse recombinant GST-tagged PDE10A using [3H]-cAMP as substrate after 30 mins by scintillation proximity assay. On the technique in general: In a scintillation proximity assay essentially only radioactivity close to the scintillant gives light.

For data set [3], the target named is cGMP-dependent 3',5'-cyclic phosphodiesterase (Homo sapiens) (UniProt O00408). The data set can be described thus: Inhibition of human recombinant PDE2A using cAMP as substrate at 10 uM after 30 mins by HTRF method. (In general: In TR-FRET formats the signal depends on donor and acceptor labels being close together.)
Sequence of cGMP-dependent 3',5'-cyclic phosphodiesterase (Homo sapiens) (O00408 whole entry): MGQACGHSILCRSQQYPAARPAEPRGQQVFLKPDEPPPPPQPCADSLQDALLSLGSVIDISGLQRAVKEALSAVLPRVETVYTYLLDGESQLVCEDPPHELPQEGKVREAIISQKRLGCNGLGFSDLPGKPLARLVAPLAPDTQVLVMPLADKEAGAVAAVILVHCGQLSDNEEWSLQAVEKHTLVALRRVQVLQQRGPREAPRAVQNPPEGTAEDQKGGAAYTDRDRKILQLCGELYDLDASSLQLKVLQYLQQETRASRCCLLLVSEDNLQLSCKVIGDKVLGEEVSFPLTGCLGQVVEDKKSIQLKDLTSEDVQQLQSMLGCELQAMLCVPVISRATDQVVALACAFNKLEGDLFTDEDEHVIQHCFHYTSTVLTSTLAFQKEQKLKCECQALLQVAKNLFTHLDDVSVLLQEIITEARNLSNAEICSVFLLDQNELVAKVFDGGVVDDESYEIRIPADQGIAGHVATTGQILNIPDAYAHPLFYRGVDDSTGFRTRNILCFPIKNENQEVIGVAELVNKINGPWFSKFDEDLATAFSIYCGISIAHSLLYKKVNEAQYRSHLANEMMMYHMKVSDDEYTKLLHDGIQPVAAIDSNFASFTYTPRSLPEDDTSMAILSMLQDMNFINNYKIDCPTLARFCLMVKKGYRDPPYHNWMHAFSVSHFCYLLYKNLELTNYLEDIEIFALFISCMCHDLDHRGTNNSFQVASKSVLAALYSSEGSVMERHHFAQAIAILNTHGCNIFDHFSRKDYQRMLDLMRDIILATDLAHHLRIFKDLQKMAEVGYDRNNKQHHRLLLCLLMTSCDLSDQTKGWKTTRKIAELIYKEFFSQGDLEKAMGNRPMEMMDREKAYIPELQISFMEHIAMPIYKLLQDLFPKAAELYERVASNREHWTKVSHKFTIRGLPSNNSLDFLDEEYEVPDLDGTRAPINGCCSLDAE
Data set [4] addresses cGMP-inhibited 3',5'-cyclic phosphodiesterase 3A (Homo sapiens) (UniProt Q14432). In words: Inhibition of human recombinant PDE3A using cAMP as substrate at 10 uM after 30 mins by HTRF method.
Data set [5] deals with High affinity 3',5'-cyclic-AMP phosphodiesterase 7A (Homo sapiens) (UniProt Q13946). In words: Inhibition of human recombinant PDE7A using [3H]-cAMP as substrate at 1 uM after 30 mins by two-step radiometric assay.
Sequence of High affinity 3',5'-cyclic-AMP phosphodiesterase 7A (Homo sapiens) (Q13946 whole entry): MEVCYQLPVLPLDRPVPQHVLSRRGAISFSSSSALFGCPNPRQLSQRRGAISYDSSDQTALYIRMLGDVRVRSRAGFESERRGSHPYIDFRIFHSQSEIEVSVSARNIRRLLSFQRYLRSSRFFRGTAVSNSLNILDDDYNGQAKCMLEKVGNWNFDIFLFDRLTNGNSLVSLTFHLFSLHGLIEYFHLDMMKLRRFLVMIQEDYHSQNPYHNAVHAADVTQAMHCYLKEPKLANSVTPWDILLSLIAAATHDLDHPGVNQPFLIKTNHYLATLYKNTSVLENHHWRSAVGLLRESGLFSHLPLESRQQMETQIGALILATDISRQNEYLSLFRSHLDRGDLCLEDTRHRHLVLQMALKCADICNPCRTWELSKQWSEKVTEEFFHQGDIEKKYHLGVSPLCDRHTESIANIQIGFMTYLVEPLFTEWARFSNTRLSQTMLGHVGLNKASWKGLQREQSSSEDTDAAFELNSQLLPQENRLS
Data set [6] shares this target. In words: Inhibition of human recombinant PDE7A using [3H]-cAMP as substrate at 10 uM after 30 mins by two-step radiometric assay.
The target in data set [7] is Dual 3',5'-cyclic-AMP and -GMP phosphodiesterase 11A (Homo sapiens) (UniProt Q9HCR9). The data set can be described thus: Inhibition of human recombinant PDE11A using [3H]-cAMP as substrate at 1 uM after 30 mins by two-step radiometric assay.
Sequence of Dual 3',5'-cyclic-AMP and -GMP phosphodiesterase 11A (Homo sapiens) (Q9HCR9 whole entry, looked up): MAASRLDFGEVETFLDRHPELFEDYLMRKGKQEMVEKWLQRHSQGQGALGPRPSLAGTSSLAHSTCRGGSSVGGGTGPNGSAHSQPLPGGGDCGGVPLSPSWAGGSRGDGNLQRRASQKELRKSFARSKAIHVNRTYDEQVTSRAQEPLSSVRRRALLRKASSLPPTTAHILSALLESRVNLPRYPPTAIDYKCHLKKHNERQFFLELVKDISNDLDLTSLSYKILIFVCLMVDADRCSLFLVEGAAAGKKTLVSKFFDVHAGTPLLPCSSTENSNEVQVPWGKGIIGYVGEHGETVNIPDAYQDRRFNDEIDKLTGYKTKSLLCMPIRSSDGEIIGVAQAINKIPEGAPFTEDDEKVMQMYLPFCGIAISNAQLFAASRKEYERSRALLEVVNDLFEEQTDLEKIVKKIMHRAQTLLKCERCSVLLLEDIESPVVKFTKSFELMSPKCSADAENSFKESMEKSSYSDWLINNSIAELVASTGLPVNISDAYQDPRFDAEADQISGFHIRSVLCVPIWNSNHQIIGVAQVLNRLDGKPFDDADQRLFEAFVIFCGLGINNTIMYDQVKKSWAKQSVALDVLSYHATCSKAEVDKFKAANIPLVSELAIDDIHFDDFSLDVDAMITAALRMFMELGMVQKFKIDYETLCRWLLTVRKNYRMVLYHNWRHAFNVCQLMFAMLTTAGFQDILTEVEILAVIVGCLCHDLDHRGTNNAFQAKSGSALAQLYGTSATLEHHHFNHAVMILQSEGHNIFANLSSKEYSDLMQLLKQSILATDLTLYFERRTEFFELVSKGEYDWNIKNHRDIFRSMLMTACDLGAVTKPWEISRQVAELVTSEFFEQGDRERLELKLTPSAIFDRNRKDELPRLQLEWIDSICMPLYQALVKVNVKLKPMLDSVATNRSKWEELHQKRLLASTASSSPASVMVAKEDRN
Data set [8] is described as follows: Metabolic stability in Beagle dog liver microsomes incubated for 10 mins prior to NADPH addition measured after 60 mins by LC/MS/MS analysis. In kind it is ADME, Canis lupus familiaris. The following applies: read-out: Stability. A general note: Liver microsomes are a subcellular fraction often used to study metabolism.
Data set [9] can be described thus: Metabolic stability in human liver microsomes incubated for 10 mins prior to NADPH addition measured after 60 mins by LC/MS/MS analysis. In kind it is ADME. As to conditions: read-out: Stability.
A short description of data set [10]: Cmax in Swiss albino mouse at 10 mg/kg, po. As to conditions: in vivo. Also noted: dose 10 mg/kg, route oral. In kind it is ADME, organism-based.
Data set [11] can be described thus: Plasma clearance in iv dosed Swiss albino mouse. In kind it is ADME, organism-based.
Data set [12] relates to Rattus norvegicus. In words: Antipsychotic activity in Sprague-Dawley rat psychosis model assessed as reversal of MK-801-induced locomotion at 3 mg/kg, po administered 2 hrs prior to MK-801 challenge measured every 5 mins for 1 hr starting 15 mins post MK-801 injection relative to vehicle-treated control. In kind it is functional.
For data set [13], the system named is Rattus norvegicus. In words: Antipsychotic activity in Sprague-Dawley rat psychosis model assessed as reversal of MK-801-induced ataxia at 1 mg/kg, po administered 2 hrs prior to MK-801 challenge measured every 5 mins for 1 hr starting 15 mins post MK-801 injection relative to vehicle-treated control. In kind it is functional.
The subject of data set [14] is Rattus norvegicus. The data set can be described thus: Antipsychotic activity in Sprague-Dawley rat psychosis model assessed as reversal of MK-801-induced ataxia at 3 mg/kg, po administered 2 hrs prior to MK-801 challenge measured every 5 mins for 1 hr starting 15 mins post MK-801 injection relative to vehicle-treated control. In kind it is functional.
Data set [15] has as its system Rattus norvegicus. The data set can be described thus: Antipsychotic activity in po dosed Sprague-Dawley rat psychosis model assessed as reversal of MK-801-induced locomotion administered 2 hrs prior to MK-801 challenge measured every 5 mins for 1 hr starting 15 mins post MK-801 injection relative to vehicle-treated control. In kind it is functional.
Data set [16] has as its system Rattus norvegicus. The data set can be described thus: Antipsychotic activity in Sprague-Dawley rat prepulse inhibition deficit model assessed as reversal of MK-801-induced effect at 3 mg/kg, po administered 110 mins prior to MK-801 challenge relative to vehicle-treated control. In kind it is functional. Also noted: scale not given: the % may be the effect or the level left.

Sequence of cGMP-inhibited 3',5'-cyclic phosphodiesterase 3A (Homo sapiens) (Q14432 whole entry): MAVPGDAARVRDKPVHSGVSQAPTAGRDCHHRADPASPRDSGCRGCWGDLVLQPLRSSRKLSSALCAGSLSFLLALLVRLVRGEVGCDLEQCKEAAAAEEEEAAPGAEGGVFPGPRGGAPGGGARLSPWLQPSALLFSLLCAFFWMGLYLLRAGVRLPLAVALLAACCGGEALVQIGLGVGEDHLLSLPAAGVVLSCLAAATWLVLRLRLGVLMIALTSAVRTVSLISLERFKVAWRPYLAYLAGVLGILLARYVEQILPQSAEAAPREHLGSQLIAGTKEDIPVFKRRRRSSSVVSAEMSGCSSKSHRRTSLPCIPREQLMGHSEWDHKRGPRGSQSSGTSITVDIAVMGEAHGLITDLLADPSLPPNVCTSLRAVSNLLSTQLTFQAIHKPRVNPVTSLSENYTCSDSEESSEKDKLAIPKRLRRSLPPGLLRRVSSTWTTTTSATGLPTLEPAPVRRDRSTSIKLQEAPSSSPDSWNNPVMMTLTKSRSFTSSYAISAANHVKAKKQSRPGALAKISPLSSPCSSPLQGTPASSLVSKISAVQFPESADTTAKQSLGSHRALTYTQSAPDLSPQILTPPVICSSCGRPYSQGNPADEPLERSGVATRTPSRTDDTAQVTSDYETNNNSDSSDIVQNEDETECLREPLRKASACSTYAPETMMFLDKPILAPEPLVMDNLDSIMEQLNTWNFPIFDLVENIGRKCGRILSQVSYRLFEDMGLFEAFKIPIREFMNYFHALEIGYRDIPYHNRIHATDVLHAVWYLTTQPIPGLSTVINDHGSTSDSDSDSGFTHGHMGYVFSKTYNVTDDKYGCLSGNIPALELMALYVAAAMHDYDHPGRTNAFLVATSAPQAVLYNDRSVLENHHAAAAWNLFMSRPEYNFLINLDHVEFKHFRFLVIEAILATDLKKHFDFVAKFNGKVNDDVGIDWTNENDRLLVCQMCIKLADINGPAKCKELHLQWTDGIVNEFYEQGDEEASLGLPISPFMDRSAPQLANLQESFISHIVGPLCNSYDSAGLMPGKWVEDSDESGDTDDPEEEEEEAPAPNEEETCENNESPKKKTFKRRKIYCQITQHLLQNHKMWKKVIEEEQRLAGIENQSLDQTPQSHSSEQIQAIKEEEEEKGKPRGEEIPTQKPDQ

On to `Cn1cc(-c2ccc(Oc3nccnc3-c3ccncc3)cc2)c2ncccc21`, for which the results for the half-maximal inhibitory concentration (IC50) in data set [1] and in data set [2] were 16.1 nM and 11.7 nM, respectively. The inhibition in data set [3] amounted to 42.4%; in data set [4], 6.3%; in data set [5] it was 2.5%; in data set [6], 44.5%; in [7], 4.9%. Further, the remaining at 1 h in data set [8] was 65.8%; in data set [9], 77.4%. This compound also registered a Cmax in data set [10] of 5490 ng/mL. This compound also yielded a clearance in [11] of 68.4 mL/min/kg. Further, the Activity in data set [12] came out at 74%; in data set [13] it was 59%; in data set [14] it was 59%; in data set [16] it was 64%. In addition, in data set [15], the ED50 turned out to be 1.63 mg/kg.
